Data taken from patent publication US5414001A, “Antineoplastic pyrrolo[4,3,2-de]quinolin-8(1H)-ones” (American Cyanamid Company, priority 1993, dated 1995).
Structures can show the parent of a compound that is named as a salt. Where two headings read alike, the source gives them in different places.

What was measured:
CaCo2 / CX1 = settings: human, Caco-2, 48 h
Method: The cytotoxic activity of the pyrrolo[4,3,2-de]quinolin-8(1H)-ones against a panel of >20 human tumor cell lines is determined using the Sulforhodamine B protein dye-binding colorimetric cytotoxicity assay (SRB) described by Skehan et al. (Journal National Cancer Institute 82:1107-1112, 1990), as modified by Monks et al., (Journal National Cancer Institute 83: 757-766, 1991). […] Positive controls (i.e., etoposide) are included in every experiment. Treatments are for 48 hours, after which cells are fixed in 10% trichloroacetic acid (10% final concentration), washed five times with deionized water and stained with SRB solution (0.4% in glacial acetic acid). Protein-bound stain is solubilized with 0.1 ml tris buffer and the adsorbance values are recorded with a microplate reader. Duplicate plates of cells are fixed with trichloroacetic acid at the time of drug addition to establish To values, as described by Monks et al. (JNCl, 83: 757-766, 1991). The effect of drug treatments over the five-long range of concentrations is calculated using the formula, T--To/C--To, to determine the IC50 values.
3) The ratio values for DDP/S; CaCo2/CX1; MIP/SW620, and; HCT15/SKBR3 refer to the IC50 value for resistant cell lines included in the tumor cell panel, divided by the IC50 value for corresponding drug sensitive cell lines. For example, DDP is a Cisplatin resistant ovarian carcinoma cell line, and S is the corresponding parent drug sensitive ovarian carcinoma cell line (A2780). […] CaCo2 is a slow growing non P-glycoprotein multidrug resistant colon carcinoma cell line. MIP is a colon carcinoma cell line that expresses P-glycoprotein and is multidrug resistant; SW620 is a drug sensitive colon carcinoma cell line. HCT15 is a colon carcinoma cell line that is resistant to topoisomerase inhibitors and SKBR3 is a breast carcinoma that is very sensitive to topoisomerase inhibitors.

[1] = tested on: panel of >20 human tumor cell lines; test: In vitro tumor panel evaluation, Sulforhodamine B (SRB) cytotoxicity assay; format: cell-based; settings: for IC50: Homo sapiens
[2] = tested on: DDP (Cisplatin resistant ovarian carcinoma cell line) / S (A2780); test: SRB cytotoxicity ratio DDP/S (cisplatin resistance); format: cell-based, human; settings: 2880 min
HCT15 / SKBR3 = test: SRB cytotoxicity ratio HCT15/SKBR3 (topoisomerase resistance); format: cell-based, human; settings: 2880 min
MIP / SW620 = test: SRB cytotoxicity ratio MIP/SW620 (MDR, P-glycoprotein resistance); format: cell-based, human; settings: 2880 min
[3] = Mean IC50 value for all 20 cell lines, 48 hours
[4] = IC50 resistant / IC50 sensitive cell line, cisplatin resistance
[5] = IC50 resistant / IC50 sensitive cell line, topoisomerase resistance
[6] = human, ddp/s ovarian carcinoma cells
[7] = IC50 resistant / IC50 sensitive cell line, MDR (pglycoprotein) resistance
[8] = Mean IC50 value for all 20 cell lines, 48 hours, read-out: AVG IC50
[9] = least sensitive cell line, 48 hours, read-out: MAX IC50
[10] = most sensitive cell line, 48 hours, read-out: MIN IC50
[11] = least sensitive cell line, 48 hours
[12] = most sensitive cell line, 48 hours

Compound | CaCO2/CX1 IC50 ratio (CaCo2 / CX1) | AVG IC50 [1, 3] | DDP/S IC50 ratio [2, 4] | HCT15/SKBR3 IC50 ratio (HCT15 / SKBR3; [5]) | IC50 ([1]; 48 h, read-out: AVG IC50) | IC50 ([1]; 48 h, read-out: MAX IC50) | IC50 ([1]; 48 h, read-out: MIN IC50) | DDP/S IC50 ratio [2, 6] | HCT15/SKBR3 IC50 ratio (HCT15 / SKBR3; human, hct15/skbr3 cells) | MIP/SW620 IC50 ratio (MIP / SW620; [7]) | IC50 [1, 8] | IC50 [1, 9] | IC50 [1, 10] | MIP/SW620 IC50 ratio (MIP / SW620; human, mip/sw620 cells) | MAX IC50 [1, 11] | MIN IC50 [1, 12]
7-(Cyclohexylamino)-1,3,4,8-tetrahydro-5-methyl-8-oxo-pyrrolo[4,3,2-de]quinolinium trifluoroacetate [Example 41] | 8.3 | 6.5 µg/mL | 1.8 | 737.0 |  |  |  |  |  |  |  |  |  |  |  | 
CC(CCC(C)NC1=CC2=[N+](C)CCc3c[nH]c(c32)C1=O)NC1=CC2=[N+](C)CCc3c[nH]c(c32)C1=O (racemic) [Example 57, 7,7'-(1,4-Dimethyl-1,4-butanediyldiimino)-bis[1,3,4,8-tetrahydro-5-methyl-8-oxo-pyrrolo[4,3,2-de]quinolinium trifluoroacetate] | 100.8 |  |  |  | 13 µg/mL | 50 µg/mL | 0.43 µg/mL | 1.8 | 32.1 |  |  |  |  |  |  | 
O=C1CC2SC3CC2(C=C1Br)C1=C(N3)C(=O)c2[nH]cc3c2C1=NCC3 (centres unmarked) [Example 9, discorhabdin A] |  |  |  |  |  |  |  | 1.4 |  |  |  |  |  |  |  | 
C[N+]1=C2C(Cl)=C(N)C(=O)c3[nH]cc(c32)CC1 [Example 10, 7-Amino-6-chloro-1,3,4,8-tetrahydro-5-methyl-8-oxo-pyrrolo[4,3,2-de]quinolinium trifluoroacetate] | 0.25 |  |  | 1.5 |  |  |  |  |  | 0.7 | 5.1 µg/mL | 10 µg/mL | 1.29 µg/mL |  |  | 
C[N+]1=C2C(Br)=C(N)C(=O)c3[nH]c(Br)c(c32)CC1 [Example 13, 7-Amino-2,6-dibromo-1,3,4,8-tetrahydro-5-methyl-8-oxo-pyrrolo[4,3,2-de]quinolinium trifluoroacetate] | 0.7 |  | 1.1 | 1.7 |  |  |  |  |  | 0.9 | 2.4 µg/mL | 7.71 µg/mL | 0.4 µg/mL |  |  | 
Cn1cc2c3c1C(=O)C(N)=C(Br)C3=NCC2 [Example 14, 7-Amino-6-bromo-3,4-dihydro-1-methyl-8-oxo-pyrrolo [4,3,2-de]quinolin-8 (1H) -one trifluoroacetate] | 0.8 |  |  |  |  |  |  | 1.2 | 2.1 |  | 2.3 µg/mL | 3.54 µg/mL | 0.84 µg/mL | 1.4 |  | 
C[N+]1=C2C=C(N)C(=O)c3c2c(cn3Cc2cccc(Cl)c2)CC1 [Example 21, 7-Amino-1-[(3-chlorophenyl]methyl]-1,3,4,8-tetrahydro-5-methyl-8-oxo-pyrrolo[4,3,2-de]quinolinium trifluoroacetate] | 0.8 |  | 1.5 | 7.1 |  |  |  |  |  | 7.0 | 1.4 µg/mL | 4.47 µg/mL | 0.28 µg/mL |  |  | 
COc1cccc(Cn2cc3c4c2C(=O)C(N)=CC4=[N+](C)CC3)c1 [Example 23, 7-Amino-1,3,4,8-tetrahydro-1-[(3-methoxyphenyl)methyl]-5-methyl-8-oxo-pyrrolo[4,3,2-de]quinolinium trifluoroacetate] | 1.0 |  | 1.2 | 3.8 |  |  |  |  |  | 8.6 | 2.1 µg/mL | 4.2 µg/mL | 0.45 µg/mL |  |  | 
COC(=O)CCNC1=CC2=[N+](C)CCc3cn(Cc4ccccc4)c(c32)C1=O [Example 25, 1,3,4,8-tetrahydro-7-[(3-methoxy-3-oxopropyl)amino]-5-methyl-8-oxo-1-(phenylmethyl)pyrrolo[4,3,2-de]quinolinium trifluoroacetate] | 7.3 |  | 6.1 | 23.5 |  |  |  |  |  |  | 13 µg/mL | 50 µg/mL | 1.32 µg/mL |  |  | 
COC(=O)CCNC1=CC2=[N+](C)CCc3cn(CCC(=O)OC)c(c32)C1=O [Example 27, 1,3,4,8-Tetrahydro-1-(3-methoxy-3-oxopropyl)-7-[7-[(3-methoxy-3-oxopropyl)amino]-5-methyl-8-oxo-pyrrolo[4,3,2-de]quinolinium trifluoroacetate] | 15.1 |  | 5.1 | 288.0 |  |  |  |  |  |  | 15 µg/mL | 50 µg/mL | 0.17 µg/mL |  |  | 
Cn1cc2c3c1C(=O)C(N)=CC3=[N+](C)CC2 [Example 29, 7-Amino-1,3,4,8-tetrahydro-1,5-dimethyl-8-oxo-pyrrolo[4,3,2-de] quinolinium trifluoroacetate] | 2.9 |  |  |  | 2.6 µg/mL | 5.7 µg/mL | 1.03 µg/mL |  | 1.8 |  |  |  |  | 1.8 |  | 
CNC1=CC2=[N+](C)CCc3cn(C)c(c32)C1=O [Example 30, 1,3,4,8-Tetrahydro-1,5-dimethyl-7-(methylamino)-8-oxo-pyrrolo[4,3,2-de]quinolinium trifluoroacetate] | 3.6 |  | 1.1 | 12.7 |  |  |  |  |  | 65.8 | 4.5 µg/mL | 25.9 µg/mL | 0.41 µg/mL |  |  | 
C=CC[N+]1=C2C=C(N)C(=O)c3c2c(cn3C)CC1 [Example 31, 7-Amino-1,3,4,8-tetrahydro-1-methyl-8-oxo-5-(2-propenyl)[4,3,2-de]quinolinium trifluoroacetate] | 0.6 |  | 1.2 | 2.7 |  |  |  |  |  | 8.0 | 1.7 µg/mL | 2.59 µg/mL | 0.34 µg/mL |  |  | 
Cn1cc2c3c1C(=O)C(N)=CC3=[N+](Cc1ccccc1)CC2 [Example 32, 7-Amino-1,3,4,8-tetrahydro-1-methyl-8-oxo-5-(phenylmethyl)-pyrrolo[4,3,2-de]quinolinium trifluoroacetate] | 1.8 |  |  |  | 2.1 µg/mL | 10 µg/mL | 0.37 µg/mL |  | 3.5 |  |  |  |  | 0.9 |  | 
CNC1=CC2=[N+](C)CCc3c[nH]c(c32)C1=O [Example 35, 1,3,4,8-Tetrahydro-5-methyl-7-(methylamino)-8-oxo-pyrrolo[4,3,2-de]quinolinium trifluoroacetate] | 1.3 |  | 1.0 | 9.1 |  |  |  |  |  | 20.3 | 5.7 µg/mL | 24.4 µg/mL | 1.2 µg/mL |  |  | 
CCCCCCCCN(CCCCCCCC)C1=CC2=[N+](C)CCc3c[nH]c(c32)C1=O [Example 39, 1,3,4,8-Tetrahydro-5-methyl-7-(dioctylamino)-8-oxo-pyrrolo[4,3,2-de]quinolinium trifluoroacetate] | 4.8 |  | 1.7 | 122.0 |  |  |  |  |  | 9.0 | 0.8 µg/mL | 2.71 µg/mL | 0.19 µg/mL |  |  | 
CC(C)NC1=CC2=[N+](C)CCc3c[nH]c(c32)C1=O.O=C([O-])C(F)(F)F [Example 40, 1,3,4,8-Tetrahydro-5-methyl-7-[(2-methylethyl)amino]-8-oxo-pyrrolo[4,3,2-de]quinolinium trifluoroacetate] | 8.3 | 5.8 µg/mL | 1.3 | 102.0 |  |  |  |  |  |  |  |  |  |  | 50 µg/mL | 0.25 µg/mL
C[N+]1=C2C=C(NCc3ccoc3)C(=O)c3[nH]cc(c32)CC1.O=C([O-])C(F)(F)F [Example 43, 7-[(3-Furanylmethyl)amino]-1,3,4,8-tetrahydro-5-methyl-8-oxo-pyrrolo[4,3,2-de]quinolinium trifluoroacetate] | 19.8 | 6.4 µg/mL | 1.6 | 78.5 |  |  |  |  |  | 90.8 |  |  |  |  | 36.3 µg/mL | 0.27 µg/mL
C[N+]1=C2C=C(NCc3ccc(C(=O)O)cc3)C(=O)c3[nH]cc(c32)CC1 [Example 45, 7-[[(4-Carboxylphenyl)methyl]amino]-1,3,4,8-tetrahydro-5-methyl-8-oxo-pyrrolo[4,3,2-de]quinolinium trifluoroacetate] |  |  | 1.2 | 1.6 |  |  |  |  |  | 1.2 | 33 µg/mL | 50 µg/mL | 8.99 µg/mL |  |  | 
COc1ccc(CNC2=CC3=[N+](C)CCc4c[nH]c(c43)C2=O)cc1 [Example 48, 1,3,4,8-Tetrahydro-7-[[(4-methoxyphenyl)methyl]amino]-5-methyl-8-oxo-pyrrolo[4,3,2-de]quinolinium trifluoroacetate] | 38.0 |  | 11.0 | 2090.0 |  |  |  |  |  |  | 7.7 µg/mL | 50 µg/mL | 0.02 µg/mL |  |  | 
Cn1cc2c3c1C(=O)C(=O)C=C3NCC2.O=C(O)C(F)(F)F [Example 51, 1,3,4,5-Tetrahydro-1-methyl-pyrrolo[4,3,2-de]quinoline-7,8-dione trifluoroacetate] |  |  |  |  |  |  |  |  |  |  | 48 µg/mL | 50 µg/mL | 35.6 µg/mL |  |  | 
Cc1[nH]c2c(c1C)C1=[N+](C)CCc3c[nH]c(c31)C2=O [Example 54, 3,5,6,7-Tetrahydro-1,8,9-trimethyl-6-oxo-2M-dipyrrolo[4,3,2-de:2',3'-h]quinolinium trifluoroacetate] | 4.2 |  | 1.2 | 3.9 |  |  |  |  |  |  | 18 µg/mL | 50 µg/mL | 2.26 µg/mL |  |  | 
